Measurements: patent publication US20240368163A1, “COMPOUNDS AND METHODS FOR MODULATING SPLICING” (REMIX THERAPEUTICS INC., priority 2021, published 2024)

Test system: Target C
Experiment: HiBiT protein abundance assay, Target C
Format: cell-based, human
Settings: modified K562 cells
Outline: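 Cells carrying the HiBiT knock-in were plated at 10000 cells/well, dosed with compound (10-point, 3-fold, 10 μM top final) and incubated 24 hours at 37 °C. Lytic reagent was then added and luminescence read. Percent response fed a 4PL fit for IC50.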

[1] = Homo sapiens, K562, 24 h, Table 13A
[2] = Homo sapiens, K562, 24 h, Table 13B

SMILES: CN(c1ccc(-c2cc(F)c(-c3cn[nH]c3)c3cn[nH]c23)nn1)[C@@H]1C[C@H]2CC(F)(F)[C@@H](C1)N2 (stereo in doubt) [Compound 378, 6,6-difluoro-N-{6-[5-fluoro-4-(1H-pyrazol-4-yl)-1H-indazol-7-yl]pyridazin-3-yl}-N-methyl-8-azabicyclo[3.2.1]octan-3-amine]
- IC50 [1]: < 100 nM

SMILES: CN(c1ccc(-c2ccc(-c3cn[nH]c3)c3ncsc23)nn1)[C@@H]1C[C@H]2CC(F)(F)[C@@H](C1)N2 (stereo in doubt) [Compound 379, 6,6-difluoro-N-methyl-N-{6-[4-(1H-pyrazol-4-yl)-1,3-benzothiazol-7-yl]pyridazin-3-yl}-8-azabicyclo [3.2.1]octan-3-amine]
- IC50 [1]: 100 to 1000 nM

SMILES: CN(c1ccc(-c2ccc(-c3cn[nH]c3)c3cn[nH]c23)nn1)[C@@H]1C[C@H]2CC[C@@H](C1)N2 [Compound 104]
- IC50 [1]: 100 to 1000 nM

SMILES: CN(c1ccc(-c2ccc(-n3cccn3)c3cn[nH]c23)nn1)[C@@H]1C[C@H]2CC[C@@H](C1)N2 [Compound 105]
- IC50 [1]: < 100 nM

SMILES: CN(c1ccc(-c2ccc(-c3cn[nH]c3)c3ncsc23)nn1)C1CC(C)(C)NC(C)(C)C1 [Compound 132]
- IC50 [1]: 100 to 1000 nM

SMILES: CN(c1ccc(-c2ccc(-c3cn[nH]c3)c3cn[nH]c23)nn1)C1CC(C)(C)NC(C)(C)C1 [Compound 137]
- IC50 [1]: 100 to 1000 nM

SMILES: CN(c1ccc(-c2ccc(-c3ccc(=O)n(C)c3)c3scnc23)nn1)C1CC(C)(C)NC(C)(C)C1 [Compound 178]
- IC50 [1]: > 10000 nM

SMILES: CC1(C)CC(Oc2ccc(-c3ccc(-c4cn[nH]c4)c4ncsc34)nn2)CCN1 (stereo not drawn) [Compound 182]
- IC50 [1]: 100 to 1000 nM

SMILES: c1nc2c(-c3cn[nH]c3)ccc(-c3ccc(OC4CCNCC4)nn3)c2s1 [Compound 183]
- IC50 [1]: < 100 nM

SMILES: c1nc2c(-c3cn[nH]c3)ccc(-c3ccc(O[C@@H]4C[C@H]5CC[C@@H](C4)N5)nn3)c2s1 [Compound 184]
- IC50 [1]: 100 to 1000 nM

SMILES: CC1(C)CC(Nc2ccc(-c3ccc(-c4cn[nH]c4)c4ncsc34)nn2)CC(C)(C)N1 [Compound 186]
- IC50 [1]: < 100 nM

SMILES: c1nc2c(-c3cn[nH]c3)ccc(-c3ccc(N[C@@H]4C[C@H]5CC[C@@H](C4)N5)nn3)c2s1 [Compound 202]
- IC50 [1]: 100 to 1000 nM

SMILES: CCN(c1ccc(C2=CC=C(c3cn[nH]c3)C3N=CSC23)nn1)[C@@H]1C[C@H]2CC[C@@H](C1)N2 (stereo partly drawn) [Compound 203]
- IC50 [1]: < 100 nM

SMILES: CN(c1ccc(-c2ccc(-c3cn[nH]c3)c3ncsc23)nn1)[C@H]1C[C@]2(C)CC[C@](C)(C1)N2 [Compound 204]
- IC50 [1]: < 100 nM

SMILES: [2H]C([2H])([2H])N(c1ccc(-c2ccc(-c3cn[nH]c3)c3ncsc23)nn1)[C@@H]1C[C@H]2CC[C@@H](C1)N2 [Compound 210]
- IC50 [1]: < 100 nM

SMILES: CN(c1ccc(-c2ccc(-c3cn[nH]c3)c3ncsc23)nn1)[C@@H]1C[C@H]2CC[C@@H](C1)N2 [Compound 213]
- IC50 [1]: < 100 nM

SMILES: c1nc2c(-c3cn[nH]c3)ccc(-c3ccc(N[C@@H]4C[C@H]5CCC[C@@H](C4)N5)nn3)c2s1 [Compound 215]
- IC50 [1]: < 100 nM

SMILES: Fc1cc(-c2ccc(O[C@@H]3C[C@H]4CC[C@@H](C3)N4)nn2)c2[nH]ncc2c1-c1cn[nH]c1 [Compound 216]
- IC50 [1]: 100 to 1000 nM

SMILES: CN(c1ccc(-c2ccc(-c3cn[nH]c3)c3ncsc23)nn1)[C@@H]1C[C@H]2CCC[C@@H](C1)N2 [Compound 226]
- IC50 [1]: < 100 nM

SMILES: [2H]C([2H])([2H])N(c1ccc(-c2ccc(-c3cn[nH]c3)c3ncsc23)nn1)[C@@H]1C[C@H]2CCC[C@@H](C1)N2 [Compound 227]
- IC50 [1]: < 100 nM

SMILES: CCN(c1ccc(-c2ccc(-c3cn[nH]c3)c3ncsc23)nn1)[C@@H]1C[C@H]2CCC[C@@H](C1)N2 [Compound 228]
- IC50 [1]: < 100 nM

SMILES: CN(c1ccc(-c2ccc(-c3cnn(C)c3)c3cn[nH]c23)nn1)C1CCNCC1 [Compound 242]
- IC50 [1]: > 10000 nM

SMILES: CN(c1ccc(-c2cc(F)c(-c3cnn(C)c3)c3cn[nH]c23)nn1)[C@@H]1C[C@H]2CC[C@@H](C1)N2 [Compound 291]
- IC50 [1]: < 100 nM

SMILES: c1n[nH]cc1-c1ccc(-c2ccc(N[C@@H]3C[C@H]4CCC[C@@H](C3)N4)nn2)c2[nH]ncc12 [Compound 294]
- IC50 [1]: 100 to 1000 nM

SMILES: CC1(C)CC(Oc2ccc(-c3cc(F)c(-c4cn[nH]c4)c4cn[nH]c34)nn2)CC(C)(C)N1 [Compound 307]
- IC50 [1]: 100 to 1000 nM

SMILES: c1nc2c(-c3cn[nH]c3)ccc(-c3ccc(N(C4CC4)C4C[C@H]5CCC[C@@H](C4)N5)nn3)c2s1 (stereo partly drawn) [Compound 311]
- IC50 [1]: < 100 nM

SMILES: Fc1cc(-c2ccc(O[C@@H]3C[C@H]4CC[C@@H](C3)N4)nn2)c2sncc2c1-c1cn[nH]c1 [Compound 327]
- IC50 [1]: < 100 nM

SMILES: COc1cc(-c2ccc(-c3ccc(N(C)C4CC(C)(C)NC(C)(C)C4)nn3)c3scnc23)cnn1 [Compound 330]
- IC50 [1]: < 100 nM

SMILES: CC(C)(C)NC1CCN(c2ccc(-c3ccc(-c4cn[nH]c4)c4ncsc34)nn2)C1 (stereo not drawn) [Compound 336]
- IC50 (Table 13A, 24 hours): 100 to 1000 nM

SMILES: c1nc2c(-c3cn[nH]c3)ccc(-c3ccc(N4CCC(NC5CC5)C4)nn3)c2s1 (stereo not drawn) [Compound 337]
- IC50 [1]: > 10000 nM

SMILES: Fc1cc(-c2ccc(N[C@@H]3C[C@H]4CC[C@@H](C3)N4)nn2)c2scnc2c1-c1cn[nH]c1 [Compound 339]
- IC50 [1]: < 100 nM

SMILES: Cc1ncc(-c2ccc(-c3ccc(O[C@@H]4C[C@H]5CC[C@@H](C4)N5)nn3)c3scnc23)s1 [Compound 348, 7-{6-[(exo)-8-azabicyclo[3.2.1]octan-3-yloxy]pyridazin-3-yl}-4-(2-methyl-1,3-thiazol-5-yl)-1,3-benzothiazole]
- IC50 [1]: 100 to 1000 nM

SMILES: COc1cc(-c2ccc(-c3ccc(O[C@@H]4C[C@H]5CC[C@@H](C4)N5)nn3)c3scnc23)cnn1 [Compound 362]
- IC50 [1]: < 100 nM

SMILES: Fc1ccn(-c2ccc(-c3ccc(O[C@@H]4C[C@H]5CC[C@@H](C4)N5)nn3)c3scnc23)n1 [Compound 363]
- IC50 [1]: 100 to 1000 nM

SMILES: CN(c1ncc(-c2ccc(-n3cccn3)c3[nH]ncc23)nn1)[C@@H]1C[C@H]2CCC[C@@H](C1)N2 [Compound 551]
- IC50 [1]: < 100 nM

SMILES: c1cnn(-c2ccc(-c3cnc(N[C@@H]4C[C@H]5CC[C@@H](C4)N5)nn3)c3cn[nH]c23)c1 [Compound 556]
- IC50 [1]: < 100 nM

SMILES: c1cnn(-c2ccc(-c3cnc(N[C@@H]4C[C@H]5CCC[C@@H](C4)N5)nn3)c3cn[nH]c23)c1 [Compound 561]
- IC50 [1]: < 100 nM

SMILES: CC(C)(C)C1CN(c2ncc(-c3ccc(-n4cccn4)c4[nH]ncc34)nn2)CCN1 (stereo not drawn) [Compound 572]
- IC50 [1]: 100 to 1000 nM

SMILES: CN(c1ncc(-c2ccc(-n3cncn3)c3[nH]ncc23)nn1)[C@@H]1C[C@H]2CCC[C@@H](C1)N2 [Compound 574]
- IC50 [1]: < 100 nM

SMILES: CN(c1ncc(-c2ccc(-n3ccnn3)c3[nH]ncc23)nn1)[C@@H]1C[C@H]2CCC[C@@H](C1)N2 [Compound 576]
- IC50 [1]: 100 to 1000 nM

SMILES: Cc1ncc(-c2ccc(-c3cnc(N(C)[C@@H]4C[C@H]5CCC[C@@H](C4)N5)nn3)c3scnc23)s1 [Compound 578]
- IC50 [1]: < 100 nM

SMILES: Cc1nc(-c2ccc(-c3cnc(N(C)[C@@H]4C[C@H]5CCC[C@@H](C4)N5)nn3)c3scnc23)cs1 [Compound 579]
- IC50 [1]: 100 to 1000 nM

SMILES: Cc1cc(-c2ccc(-c3cnc(N(C)[C@@H]4C[C@H]5CCC[C@@H](C4)N5)nn3)c3scnc23)sn1 [Compound 580]
- IC50 [1]: < 100 nM

SMILES: CC(C)(C)[C@H]1CN(c2ncc(-c3ccc(-n4cccn4)c4[nH]ncc34)nn2)CCN1 [Compound 581]
- IC50 [1]: < 100 nM

SMILES: COc1nc(-c2ccc(N(C)[C@@H]3C[C@H]4CC[C@@H](C3)N4)nn2)ccc1-c1cn[nH]c1 [Compound 906]
- IC50 [2]: < 100 nM

SMILES: CN(c1ccc(-c2ccc(-c3cn[nH]c3)cn2)nn1)[C@@H]1C[C@H]2CC[C@@H](C1)N2 [Compound 915]
- IC50 [2]: 1000 to 10000 nM

SMILES: COc1nc(-c2ccc(OC3CC(C)(C)NC(C)(C)C3)nn2)ccc1-c1cn[nH]c1 [Compound 917]
- IC50 [2]: < 100 nM

SMILES: COc1nc(-c2ccc(OC3CC(C)(C)NC(C)(C)C3)nn2)ccc1-c1cnn(C)c1 [Compound 918]
- IC50 [2]: 100 to 1000 nM

SMILES: COc1nc(-c2ccc(N(C)C3CC(C)(C)NC(C)(C)C3)nn2)ccc1-c1cn[nH]c1 [Compound 919]
- IC50 [2]: < 100 nM

SMILES: COc1nc(-c2ccc(N(C)C3CC(C)(C)NC(C)(C)C3)nn2)ccc1-c1cnn(C)c1 [Compound 920]
- IC50 [2]: 100 to 1000 nM

SMILES: CN(c1ccc(-c2ccc(-c3cn[nH]c3)c(F)n2)nn1)[C@@H]1C[C@H]2CC[C@@H](C1)N2 [Compound 922]
- IC50 [2]: < 100 nM

SMILES: CN(c1ccc(-c2ccc(-c3cn[nH]c3)c(C#N)n2)nn1)[C@@H]1C[C@H]2CC[C@@H](C1)N2 [Compound 930]
- IC50 [2]: < 100 nM

SMILES: COc1nc(-c2ccc(N(C)[C@@H]3C[C@H]4CC[C@@H](C3)N4)nn2)cc(F)c1-c1cn[nH]c1 [Compound 931]
- IC50 [2]: < 100 nM

SMILES: CN(c1ccc(-c2ccc(-c3cn[nH]c3)c(OC3CC3)n2)nn1)[C@@H]1C[C@H]2CC[C@@H](C1)N2 [Compound 939]
- IC50 [2]: < 100 nM

SMILES: COc1cc(-c2ccc(-c3ccc(N(C)[C@@H]4C[C@H]5CC[C@@H](C4)N5)nn3)nc2OC)ncn1 [Compound 954]
- IC50 [2]: 1000 to 10000 nM

SMILES: CN(c1ccc(-c2ccc(-c3cn[nH]c3)c(OC(F)F)n2)nn1)[C@@H]1C[C@H]2CC[C@@H](C1)N2 [Compound 955]
- IC50 [2]: < 100 nM

SMILES: COc1nc(-c2ccc(N3CCC(NC(C)(C)C)C3)nn2)ccc1-c1cn[nH]c1 (stereo not drawn) [Compound 956]
- IC50 [2]: 100 to 1000 nM

SMILES: COc1nc(-c2ccc(N(C)[C@@H]3C[C@H]4CC[C@@H](C3)N4)nn2)ccc1-c1ccnc(O)c1 [Compound 961]
- IC50 [2]: 100 to 1000 nM

SMILES: COc1nc(-c2ccc(O[C@@H]3C[C@H]4CC[C@@H](C3)N4)nn2)ccc1-c1cnc(C)s1 [Compound 962]
- IC50 [2]: 100 to 1000 nM

SMILES: COc1nc(-c2ccc(OC3CC(C)(C)NC(C)(C)C3)nn2)cc(F)c1-c1cn[nH]c1 [Compound 965]
- IC50 [2]: < 100 nM

SMILES: CCOc1nc(-c2ccc(OC3CC(C)(C)NC(C)(C)C3)nn2)cc(F)c1-c1cn[nH]c1 [Compound 966]
- IC50 [2]: < 100 nM

SMILES: CCOc1nc(-c2ccc(OC3CC(C)(C)NC(C)(C)C3)nn2)ccc1-c1cn[nH]c1 [Compound 967]
- IC50 [2]: < 100 nM

SMILES: COc1nc(-c2ccc(OC3CC4CC(F)(F)C(C3)N4)nn2)cc(F)c1-c1cn[nH]c1 (stereo not drawn) [Compound 969]
- IC50 [2]: 100 to 1000 nM
